Experimental data: patent US20230330254A1 (Regeneron Pharmaceuticals, Inc., priority 2022, published 2023)
Read-outs that look alike come from different tables or passages of the source.

What was measured:
[1] = target: human GLP1R (Homo sapiens, UniProt P43220); test: b-arrestin 2 recruitment assay, PathHunter CHO/b-arrestin 2/hGLP1R cells; type: cell-based; details: read-out: CHO/b-arrestin 2/hGLP1R Emax (% GLP-1)
Protocol: The b-arrestin 2 recruitment assay was performed following manufacter's instructions (Eurofins DiscoverX, #93-0300E2CP0M), with minor modifications. […] Serial dilutions of free payload and LP were performed in 100% DMSO, followed by 1:100 dilution in assay media. Test articles were added to cells (1:5 dilution) with the last well in each serial dilution series serving as a blank control containing only assay media for antibodies and ATLs or assay media with 0.2% DMSO for payload and LP. After a 90-minute incubation at 37° C., PathHunter Detection Reagent (Eurofins DiscoverX, #93-0300E2CP0M) was added to the wells followed by a 1-hour incubation at room temperature. RLUs were measured on EnVision Plate Reader (Perkin Elmer).
EC50 values for luminescence assays were determined using a four-parameter logistic equation over a 12-point dose response curve (GraphPad Prism).

[2] = target: T1, human gastric inhibitory polypeptide receptor (GIPR) (Homo sapiens, UniProt P48546); test: Luciferase reporter assay, HEK293/CRE-Luc/hGIPR (Example 17); type: cell-based; set-up: expressed in transfected cells; host or cells: HEK293/CRE-Luc; details: Table 28; CRE-dependent luciferase reporter activity; read-out: HEK293/CRE-Luc/hGlPR EC50
T1 sequence (P48546 22-466): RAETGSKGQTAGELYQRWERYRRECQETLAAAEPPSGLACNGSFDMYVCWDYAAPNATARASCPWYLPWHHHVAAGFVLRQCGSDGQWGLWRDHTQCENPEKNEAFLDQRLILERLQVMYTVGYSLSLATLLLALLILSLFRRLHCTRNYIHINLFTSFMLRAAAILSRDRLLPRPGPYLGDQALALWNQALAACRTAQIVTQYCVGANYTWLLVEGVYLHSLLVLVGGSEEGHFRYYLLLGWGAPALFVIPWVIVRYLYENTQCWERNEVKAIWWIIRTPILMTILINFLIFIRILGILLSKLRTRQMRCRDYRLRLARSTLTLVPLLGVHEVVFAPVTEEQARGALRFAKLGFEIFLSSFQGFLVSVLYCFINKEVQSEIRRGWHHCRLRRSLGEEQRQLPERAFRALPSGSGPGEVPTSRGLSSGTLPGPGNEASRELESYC
Text: To test the activity of GLP1R agonist payloads, GLP1R agonist linker-payloads (LPs), and anti-GLP1R antibody tethered drug conjugates (ATDCs) of the invention, a cell-based cAMP responsive luciferase reporter assay was developed. To generate the assay cell line, the firefly luciferase gene was placed under the control of a cAMP response element (CRE) located upstream of a minimal promoter and transfected into HEK293 cells and referred to herein as HEK293/CRE-Luc cells.
Three-fold serial dilutions of free payloads or LPs were prepared in 100% DMSO, transferred to fresh assay media, and added to the cells at a final constant DMSO concentration of 0.2%. The last well in the plate served as a blank control containing only the assay media and 0.2% DMSO (untreated well) and was plotted as a continuation of the 3-fold serial dilution. Four to six hours later, luciferase activity was determined after the addition of One-Glo™ reagent (Promega, Cat #E6130) to each well. Relative light units (RLUs) were measured on an Envision luminometer (PerkinElmer) and EC50 values were determined using a four-parameter logistic equation over a 12-point dose response curve (GraphPad Prism). The signal to noise (S/N) was determined by taking the ratio of the highest RLU on the dose response curve to the RLU in the untreated wells. […]

[3] = target: hERG potassium channels (Homo sapiens, UniProt Q12809); test: cell-based
Protocol: For the assay, CHO cells stably expressing hERG potassium channels were plated and cultured for at least 2 days in a humidified and air-controlled (5% CO2) incubator at 37° C. prior to use in electrophysiological experiments. Cells were then harvested using TrypLE and resuspended in physiological solution (10 mM HEPES, 80 mM NaCl, 4 mM KCl, 2 mM CaCl2, 1 mM MgCl2, 5 mM Glucose, 60 mM NM DG, pH 7.4). Test compounds were dissolved in water to obtain stock solutions for different test concentrations. […] One 40 μL addition of the vehicle was applied, followed by a 300s baseline recording period. […] Recordings were required to pass quality control over the duration of the recording or the well was abandoned, and the compound was retested, all automatically set by PatchControl. […] A minimum of 2 replicates per concentration were obtained. […] Curve-fitting and IC50 value calculations were performed by GraphPad Prism 5.0.

[4] = target: T2, human glucagon-like peptide 2 receptor (GLP2R) (Homo sapiens, UniProt O95838); test: CRE-luciferase reporter assay, HEK293/Myc-hGLP2R/Cre-Luc (Example 9); type: cell-based; details: Table 5C
T2 construct: full-length human GLP1R, cynomolgus GLP1R, human glucagon receptor (GCGR), human glucagon-like peptide 2 receptor (GLP2R); expressed in transfected cells; host or cells: HEK293/CRE-Luc
T2 sequence (O95838 1-553): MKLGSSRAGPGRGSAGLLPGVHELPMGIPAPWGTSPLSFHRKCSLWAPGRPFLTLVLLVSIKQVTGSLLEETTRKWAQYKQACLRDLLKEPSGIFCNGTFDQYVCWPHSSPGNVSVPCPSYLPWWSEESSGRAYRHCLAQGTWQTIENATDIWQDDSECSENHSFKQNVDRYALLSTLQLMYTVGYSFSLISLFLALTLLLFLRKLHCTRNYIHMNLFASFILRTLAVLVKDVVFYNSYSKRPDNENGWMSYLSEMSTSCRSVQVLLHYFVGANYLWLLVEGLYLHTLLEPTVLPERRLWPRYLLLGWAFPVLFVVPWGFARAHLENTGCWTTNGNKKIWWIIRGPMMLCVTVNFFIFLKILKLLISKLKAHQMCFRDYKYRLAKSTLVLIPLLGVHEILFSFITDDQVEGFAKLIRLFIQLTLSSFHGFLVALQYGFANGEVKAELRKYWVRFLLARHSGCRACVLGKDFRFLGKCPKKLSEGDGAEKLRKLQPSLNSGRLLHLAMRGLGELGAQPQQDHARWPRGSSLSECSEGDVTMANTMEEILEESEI
Protocol: To test the activity of GLP1R agonist payloads and GLP1R agonist linker-payloads (LPs) in vitro, a cell-based cAMP responsive luciferase reporter assay was developed.
Cells were incubated overnight at 37° C. in 5% CO2. […] Plates were incubated for 5.5 h at 37° C. in 5% CO2. For end-point measurement, 100 μL/well of One-Glo reagent (Promega, #E6051) was added and plates were kept at room temperature for 5-10 minutes. Luciferase activity was measured on Envision Multilabel Plate Reader (Perkin Elmer) in Luminescent mode. The relative light units (RLU) values were obtained and the results were analyzed using nonlinear regression with GraphPad Prism software (GraphPad).

hERG potassium channels, sequence (Q12809 whole entry): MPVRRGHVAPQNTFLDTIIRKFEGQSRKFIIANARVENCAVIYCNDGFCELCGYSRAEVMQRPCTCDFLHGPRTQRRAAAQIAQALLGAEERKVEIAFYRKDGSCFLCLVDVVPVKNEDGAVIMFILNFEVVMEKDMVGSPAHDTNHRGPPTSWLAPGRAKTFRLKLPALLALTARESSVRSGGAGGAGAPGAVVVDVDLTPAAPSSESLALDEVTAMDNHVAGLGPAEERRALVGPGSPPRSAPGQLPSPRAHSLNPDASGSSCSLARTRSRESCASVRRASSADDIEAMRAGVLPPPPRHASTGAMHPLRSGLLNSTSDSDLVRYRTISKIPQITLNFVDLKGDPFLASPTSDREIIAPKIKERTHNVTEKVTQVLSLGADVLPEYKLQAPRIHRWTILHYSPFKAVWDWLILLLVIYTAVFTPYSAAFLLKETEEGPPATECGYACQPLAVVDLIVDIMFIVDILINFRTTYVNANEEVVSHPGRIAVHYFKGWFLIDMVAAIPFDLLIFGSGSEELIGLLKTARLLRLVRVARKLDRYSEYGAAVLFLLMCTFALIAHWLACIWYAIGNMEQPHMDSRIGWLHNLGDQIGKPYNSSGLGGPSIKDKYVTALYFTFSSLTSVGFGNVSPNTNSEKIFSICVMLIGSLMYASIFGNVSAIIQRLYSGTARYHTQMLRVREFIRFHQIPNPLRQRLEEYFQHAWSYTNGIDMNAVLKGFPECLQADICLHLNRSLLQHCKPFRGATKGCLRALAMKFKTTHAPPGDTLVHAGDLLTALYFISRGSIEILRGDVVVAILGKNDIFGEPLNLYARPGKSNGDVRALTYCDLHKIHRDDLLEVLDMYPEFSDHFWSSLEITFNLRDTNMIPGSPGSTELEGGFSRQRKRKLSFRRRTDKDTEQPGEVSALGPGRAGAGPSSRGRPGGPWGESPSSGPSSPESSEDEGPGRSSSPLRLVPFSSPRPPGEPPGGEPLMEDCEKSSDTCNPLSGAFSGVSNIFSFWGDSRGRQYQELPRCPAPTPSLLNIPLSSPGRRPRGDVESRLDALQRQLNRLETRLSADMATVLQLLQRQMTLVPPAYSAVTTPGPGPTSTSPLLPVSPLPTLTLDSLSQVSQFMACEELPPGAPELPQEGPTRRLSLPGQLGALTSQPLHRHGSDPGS
human GLP1R, sequence (P43220 24-463): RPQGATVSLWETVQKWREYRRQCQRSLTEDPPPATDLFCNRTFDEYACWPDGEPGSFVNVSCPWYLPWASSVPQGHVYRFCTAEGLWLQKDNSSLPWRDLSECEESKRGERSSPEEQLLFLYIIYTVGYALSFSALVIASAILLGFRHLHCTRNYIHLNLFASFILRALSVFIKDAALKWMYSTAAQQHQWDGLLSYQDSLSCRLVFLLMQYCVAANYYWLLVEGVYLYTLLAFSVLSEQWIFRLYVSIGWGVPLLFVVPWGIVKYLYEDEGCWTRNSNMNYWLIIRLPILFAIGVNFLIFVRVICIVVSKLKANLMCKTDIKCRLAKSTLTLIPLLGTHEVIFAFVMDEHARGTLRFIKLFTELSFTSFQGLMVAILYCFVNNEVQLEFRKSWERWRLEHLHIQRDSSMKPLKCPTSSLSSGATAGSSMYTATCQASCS

Q: With `CCc1cc(OCCCCn2cc(COCCOCCOCCOCCOCCOCCOCCOCCN)nn2)ccc1-c1ccc(C[C@H](NC(=O)[C@H](CC(=O)O)NC(=O)[C@H](CO)NC(=O)[C@@H](NC(=O)[C@](C)(Cc2ccccc2F)NC(=O)[C@@H](NC(=O)CNC(=O)[C@H](Cc2nn[nH]n2)NC(=O)C(C)(C)C(=O)NCCc2cnc[nH]2)[C@@H](C)O)[C@@H](C)O)C(=O)N[C@@H](CCCc2cc(C)cc(C)c2)C(N)=O)cc1` [M3190] as the compound, how does the Emax [1] read?
A: Its Emax is 108%.

Q: What about the EC50 [2] of the same compound?
A: The EC50 was greater than 0.2 µM.

Q: `CCc1cc(OCCCCn2cc(COCCOCCOCCOCCOCCOCCOCCOCCN)nn2)ccc1-c1ccc(C[C@H](NC(=O)[C@H](CC(=O)O)NC(=O)[C@H](CO)NC(=O)[C@@H](NC(=O)C(C)(Cc2ccccc2F)NC(=O)[C@@H](NC(=O)CNC(=O)[C@H](Cc2nn[nH]n2)NC(=O)C(C)(C)C(=O)NCCc2cnc[nH]2)[C@@H](C)O)[C@@H](C)O)C(=O)N[C@@H](CCCc2cc(C)cc(C)c2)C(N)=O)cc1` (some centres unmarked) [LP11, NH2-PEG8-triazole-P8] was tested. Which IC50 [3] did it give?
A: Its IC50 is greater than 100 µM.

Q: What about the IC50 ([3]; human, pH 7.4) of the same compound?
A: The IC50 was greater than 100 µM.

Q: What about the “GLP2R EC50 (nM)” value [4] of the same compound?
A: Its value is “Completely inactive”.
